Reference: US9346761B2, “Arginine methyltransferase inhibitors and uses thereof” (Epizyme, Inc., priority 2013, dated 2016)

target: T1, Full-length human PRMT3 (Homo sapiens, UniProt O60678); experiment: PRMT3 biochemical assay (3H-SAM Flashplate, peptide substrate)
T1 construct: GST-tagged PRMT3; made in house; host or cells: E. coli BL21(DE3) Gold (pGEX-KG)
Source text: General Materials. S-adenosylmethionine (SAM), S-adenosylhomocysteine (SAH), bicine, Tween20, dimethylsulfoxide (DMSO), bovine skin gelatin (BSG),), isopropyl-β-D-thiogalactopyranoside (IPTG), and Tris(2-carboxyethyl)phosphine hydrochloride solution (TCEP) were purchased from Sigma-Aldrich at the highest level of purity possible. ^3H-SAM was purchase from American Radiolabeled Chemicals with a specific activity of 80 Ci/mmol. 384-well streptavidin Flashplates were purchased from PerkinElmer.
Substrates. Peptide containing the classic RMT substrate motif was synthesized with an N-terminal linker-affinity tag motif and a C-terminal amide cap by 21st Century Biochemicals. The peptide was purified by high-performance liquid chromatography (HPLC) to greater than 95% purity and confirmed by liquid chromatography mass spectrometry (LC-MS). The sequence was Biot-Ahx-[…]-amide (SEQ ID NO.:11).
Molecular Biology: : Full-length human PRMT3 (NM_005788.3) isoform 1 transcript clone was amplified from an HEK 293 cDNA library and subcloned into pGEX-KG (GE Life Sciences). The resulting construct encodes an N-terminal GST tag and a thrombin cleavage sequence ([…] […] […] […]) (SEQ ID NO.:12) fused directly to Cys 2 of PRMT3.
Protein Expression. E. coli (BL21(DE3) Gold, Stratagene) made competent by the CaCl2 method were transformed with the PRMT3 construct and ampicillin selection. Protein over-expression was accomplished by growing the PRMT3 expressing E. coli clone and inducing expression with 0.3 mM IPTG at 16° C. The culture was grown for 12 hours, harvested by centrifugation, and stored at −80° C. for purification.
Protein Purification. […] GST-tagged PRMT3 eluted with 25-400 mM phosphate in buffer C. Protein was concentrated and buffer was exchanged to 20 mM Tris, 150 mM NaCl, 5% glycerol, 5 mM β-mercaptoethanol, pH7.8 by ultrafiltration. The purity of recovered protein was 70%.
General Procedure for PRMT3 Enzyme Assays on Peptide Substrates. The assays were all performed in a buffer consisting of 20 mM Bicine (pH=7.6), 1 mM TCEP, 0.005% BSG, and 0.002% Tween 20, prepared on the day of use. Compounds in 100% DMSO (1 ul) were spotted into a polypropylene 384-well V-bottom plates (Greiner) using a Platemate Plus outfitted with a 384-channel head (Thermo Scientific). DMSO (1 ul) was added to Columns 11, 12, 23, 24, rows A-H for the maximum signal control and 1 ul of SAH, a known product and inhibitor of PRMT3, was added to columns 11, 12, 23, 24, rows I-P for the minimum signal control. A cocktail (40 ul) containing the PRMT3 enzyme was added by Multidrop Combi (Thermo-Fisher). The compounds were allowed to incubate with PRMT3 for 30 min at room temperature, then a cocktail (10 ul) containing SAM and peptide was added to initiate the reaction (final volume=51 ul). The final concentrations of the components were as follows: PRMT3 was 0.5 nM, ^3H-SAM was 100 nM, non-radiolabeled SAM was 1.8 uM, peptide was 330 nM, SAH in the minimum signal control wells was 1 mM, and the DMSO concentration was 2%. The assays were stopped by the addition of potassium chloride (10 ul) to a final concentration of 100 mM. 50 ul of the reaction in the 384-well polypropylene plate was then transferred to a 384-well Flashplate and the biotinylated peptides were allowed to bind to the streptavidin surface for at least 1 hour before being washed once with 0.1% Tween20 in a Biotek ELx405 plate washer. The plates were then read in a PerkinElmer TopCount plate reader to measure the quantity of ^3H-labeled peptide bound to the Flashplate surface, measured as disintegrations per minute (dpm) or alternatively, referred to as counts per minute (cpm).
Where dpm=disintegrations per minute, cmpd=signal in assay well, and min and max are the respective minimum and maximum signal controls.
Where top and bottom are the normally allowed to float, but may be fixed at 100 or 0 respectively in a 3-parameter fit. […]

T1 sequence (O60678 with tags, fused parts or gaps): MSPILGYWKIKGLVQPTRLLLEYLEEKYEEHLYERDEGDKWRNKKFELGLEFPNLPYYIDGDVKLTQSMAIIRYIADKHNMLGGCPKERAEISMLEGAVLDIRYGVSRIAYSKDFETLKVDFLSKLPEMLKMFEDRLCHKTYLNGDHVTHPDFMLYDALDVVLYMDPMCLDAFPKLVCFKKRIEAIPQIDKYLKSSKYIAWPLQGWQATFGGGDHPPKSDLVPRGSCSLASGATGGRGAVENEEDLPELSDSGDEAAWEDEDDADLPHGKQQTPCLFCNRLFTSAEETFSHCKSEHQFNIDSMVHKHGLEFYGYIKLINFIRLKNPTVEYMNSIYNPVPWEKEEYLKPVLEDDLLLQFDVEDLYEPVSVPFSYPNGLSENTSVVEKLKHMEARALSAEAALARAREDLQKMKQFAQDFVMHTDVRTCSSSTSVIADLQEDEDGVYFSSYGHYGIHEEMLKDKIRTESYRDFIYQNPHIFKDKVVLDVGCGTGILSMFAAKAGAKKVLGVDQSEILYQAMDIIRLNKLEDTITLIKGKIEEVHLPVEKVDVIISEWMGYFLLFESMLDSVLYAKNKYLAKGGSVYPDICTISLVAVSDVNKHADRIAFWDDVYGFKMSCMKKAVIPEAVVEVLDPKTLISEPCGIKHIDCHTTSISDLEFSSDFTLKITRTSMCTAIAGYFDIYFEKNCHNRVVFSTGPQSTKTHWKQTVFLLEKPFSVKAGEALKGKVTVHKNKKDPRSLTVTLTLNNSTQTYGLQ

Q: With `COc1ccc(-c2n[nH]cc2CN(C)CCN)cc1F` [Compound 134] as the molecule, how does the IC50 read?
A: Its IC50 is 3.01 to 10 µM.

Q: Which IC50 does the source give for `CN(CCN)Cc1c[nH]nc1-c1ccc(C(F)(F)F)cc1Cl` [Compound 135] here?
A: The IC50 was > 10 µM.

Q: With `CCNC(=O)c1ccc(-c2n[nH]cc2CN(C)CCN)cc1` [Compound 136] as the molecule, how does the IC50 read?
A: The IC50 was > 10 µM.

Q: Which IC50 does the source give for `CN(CCN)Cc1c[nH]nc1-c1cc(Cl)cc(Cl)c1` [Compound 137] here?
A: Its IC50 is 3.01 to 10 µM.

Q: Which IC50 does the source give for `CN(CCN)Cc1n[nH]cc1-c1ccc(OC(F)F)cc1` [Compound 138] here?
A: The IC50 was > 10 µM.

Q: Which IC50 does the source give for `CN(CCN1CCCC1)Cc1c[nH]nc1-c1ccc(C#N)cc1` [Compound 139] here?
A: Its IC50 is > 10 µM.

Q: For `CN(CCN)Cc1c[nH]nc1-c1ccccc1C#N` [Compound 140], which IC50 is on record?
A: The IC50 was 3.01 to 10 µM.

Q: Which IC50 does the source give for `CN(CCN)Cc1c[nH]nc1-c1ccc(C(F)(F)F)c(F)c1` [Compound 141] here?
A: The IC50 was 3.01 to 10 µM.

Q: Which IC50 does the source give for `COc1cc(-c2n[nH]cc2CN(C)CCN)ccc1F` [Compound 142] here?
A: The IC50 was 3.01 to 10 µM.

Q: With `CCN(CC)C(=O)c1ccc(-c2n[nH]cc2CN(C)CCN)cc1` [Compound 143] as the molecule, how does the IC50 read?
A: Its IC50 is 3.01 to 10 µM.

Q: With `CC(C)Oc1ccc(-c2c[nH]nc2CN(C)CCN)cc1F` [Compound 144] as the molecule, how does the IC50 read?
A: Its IC50 is > 10 µM.

Q: Which IC50 does the source give for `CN(CCN)Cc1n[nH]cc1-c1ccc(C2CCOCC2)cc1` [Compound 145] here?
A: Its IC50 is 3.01 to 10 µM.

Q: Which IC50 does the source give for `COc1ccc(-c2n[nH]cc2CN(C)CCN)c(Cl)c1` [Compound 146] here?
A: The IC50 was 3.01 to 10 µM.

Q: For `CN(CCN)Cc1c[nH]nc1-c1cc(C#N)ccc1Cl` [Compound 147], which IC50 is on record?
A: The IC50 was > 10 µM.

Q: Which IC50 does the source give for `CN(CCN)Cc1c[nH]nc1-c1ccc(C(F)(F)F)cc1F` [Compound 148] here?
A: Its IC50 is > 10 µM.

Q: `CN(CCN)Cc1c[nH]nc1-c1cccc(N(C)C)c1` [Compound 149] was tested. Which IC50 did it give?
A: Its IC50 is 3.01 to 10 µM.

Q: For `CCOC(=O)c1cccc(-c2n[nH]cc2CN(C)CCN)c1` [Compound 150], which IC50 is on record?
A: The IC50 was > 10 µM.

Q: `COc1cc(F)ccc1-c1n[nH]cc1CN(C)CCN` [Compound 151] was tested. Which IC50 did it give?
A: Its IC50 is > 10 µM.

Q: For `Cc1cc(F)ccc1-c1n[nH]cc1CN(C)CCN` [Compound 152], which IC50 is on record?
A: The IC50 was 3.01 to 10 µM.

Q: For `COc1ccc(-c2n[nH]cc2CN(C)CCN)cc1` [Compound 153], which IC50 is on record?
A: Its IC50 is 3.01 to 10 µM.

Q: Which IC50 does the source give for `COc1ccc(-c2n[nH]cc2CN(C)CCN)c(C(F)(F)F)c1` [Compound 154] here?
A: Its IC50 is > 10 µM.

Q: For `COc1ccc(-c2n[nH]cc2CN(C)CCN)c(C)c1` [Compound 155], which IC50 is on record?
A: The IC50 was 3.01 to 10 µM.

Q: For `CN(CCN)Cc1c[nH]nc1-c1cc(Cl)ccc1F` [Compound 156], which IC50 is on record?
A: The IC50 was > 10 µM.

Q: For `COc1ccc(Cl)cc1-c1n[nH]cc1CN(C)CCN` [Compound 157], which IC50 is on record?
A: The IC50 was > 10 µM.

Q: Which IC50 does the source give for `Cc1ccc(C#N)cc1-c1n[nH]cc1CN(C)CCN` [Compound 158] here?
A: The IC50 was > 10 µM.

Q: How did the IC50 turn out when `Cc1ccc(F)cc1-c1n[nH]cc1CN(C)CCN` [Compound 159] was run?
A: The IC50 was > 10 µM.

Q: With `COc1ccc(F)cc1-c1n[nH]cc1CN(C)CCN` [Compound 160] as the molecule, how does the IC50 read?
A: The IC50 was > 10 µM.

Q: Which IC50 does the source give for `Cc1ccccc1-c1n[nH]cc1CN(C)CCN` [Compound 161] here?
A: Its IC50 is > 10 µM.

Q: How did the IC50 turn out when `Cc1ccc(-c2n[nH]cc2CN(C)CCN)cc1` [Compound 162] was run?
A: Its IC50 is 3.01 to 10 µM.

Q: For `CCN(C)C(=O)c1ccc(-c2n[nH]cc2CN(C)CCN)cc1` [Compound 163], which IC50 is on record?
A: Its IC50 is > 10 µM.

Q: For `CC(C)CN(C)C(=O)c1ccc(-c2n[nH]cc2CN(C)CCN)cc1` [Compound 164], which IC50 is on record?
A: The IC50 was > 10 µM.

Q: For `CCOc1ccc(-c2n[nH]cc2CN(C)CCN)cc1` [Compound 166], which IC50 is on record?
A: Its IC50 is 3.01 to 10 µM.

Q: For `COCCOc1ccc(-c2n[nH]cc2CN(C)CCN)cc1` [Compound 167], which IC50 is on record?
A: Its IC50 is 3.01 to 10 µM.

Q: With `Cc1[nH]nc(-c2ccc(F)cc2)c1CN(C)CCN` [Compound 169] as the molecule, how does the IC50 read?
A: The IC50 was > 10 µM.

Q: `CC(C)Cc1ccc(-c2c[nH]nc2CN(C)CCN)cc1` [Compound 170] was tested. Which IC50 did it give?
A: The IC50 was 3.01 to 10 µM.

Q: For `NCCN(CCO)Cc1c[nH]nc1-c1ccc(F)cc1` [Compound 171], which IC50 is on record?
A: Its IC50 is > 10 µM.

Q: How did the IC50 turn out when `CN(CCN)Cc1c[nH]nc1-c1ccc(OCCN2CCOCC2)cc1` [Compound 172] was run?
A: The IC50 was 3.01 to 10 µM.
